Source: US20230013402A1, “REGENERATING FUNCTIONS AND PHENOTYPES OF CONNECTIVE TISSUE THROUGH NPAS2 SUPPRESSION” (The Regents of the University of California, priority 2019, published 2023)
Entries after “also recorded” stand apart in the source; their conditions may differ.

Experiments:
[1] = test system: bone marrow stromal cells (BMSC); experiment: In vitro mineralization / osteogenic differentiation of BMSC (MSC) in osteogenic medium; assay type: cell-based, mouse
Text: (§1) FIGS. 7A-7B show the effect of Reserpine on bone marrow stromal cells osteogenic differentiation. […] Bars: Tukey analysis with p<0.05. […] The expression values were normalized with day 0 RNA.
(§2) FIGS. 11A-11D(b) show results of in vitro biological assays of Npas2 suppressing compound Dwn1 (Reserpine).
(§3) Reserpine was selected and its effect on bone marrow stromal cells (BMSC) was characterized for osteogenic differentiation.
To evaluate the mechanism of action involving Npas2, Reserpine was applied to WT, Npas2+/− and Npas2−/− mouse BMSC and evaluated for in vitro osteogenic differentiation.
(§4) The small molecule compound that scored the best combined z score in Example 2, Dwn1 (Reserpine) was selected for in vitro biological assays. […] BMP-2 has been used as a gold standard for accelerated osteogenic differentiation of MSC (48, 49). […] The expression of core clock gene Bmal1 was not affected by Dwn1 (FIG. 11C). Dwn1 increased in vitro mineralization of Npas2+/− MSC, but not of Npas2−/− MSC (FIG. 11D), implying that the effect of Dwn1 (Reserpine) was facilitated primarily by Npas2 suppression.

skin split wound = experiment: Skin split (linear) wound/scar model with suture; assay type: in vivo, mouse; settings: Dwn1 in 10% DMSO with suture vs suture only and suture plus vehicle
Text: To test in vivo wound healing using Dwn1, a 1.5 by 10 millimeter skin split model was created with a suture in the middle and three groups were designed. This model is similar to a clinical situation of a skin wound. When the skin was sutured only, visible wound healing was not effective. A suture and vehicle control with 10% DMSO, in the clinical observation, wound healing was visibly better than suture only. It is hypothesized that the moisture of vehicle may improve wound healing.
Masson trichrome staining was used to stain collagen deposition blue. Thick blue collagen deposition was found not only in granulation tissue but also in the peripheral wound. The histological staining for the vehicle control with 10% DMSO, was similar to control. Thick collagen deposition was observed.
Vertical wounds (10×1.5 mm) were made on both left and right sides of the back of a mouse with a double-bladed scalpel. One ligation was performed at the center of the wound with 5-0 nylon suture. (FIG. 33A) Visual Analogue Scale (VAS) was scored everyday postoperatively until postoperative day 7 using gross images of the wounds/scars (FIG. 33A), and postoperative gross images of the wounds/scars were measured with a ruler. […] (FIG. 33D) Scar Index was evaluated using HE stained slices. (FIG. 33E) The % area of fibrous tissue was evaluated using MT stained slices. […]

Npas2-LacZ expression = experiment: Titration assay: effective concentration by LacZ expression in MSC Npas2-LacZ; assay type: cell-based, mouse; settings: serial dilution 100 μM to 0.2 nM
Description: Dwn1 was serially diluted from 100 μM to 0.2 nM and applied to MSC Npas2-LacZ. Effective concentration (EC) was determined by LacZ expression and inhibitory concentration (IC) was determined by cell viability using Calcein AM/Hoechst 33342 staining DwnC and Dwn1 are both Reserpine.
Dwn1 was identical to the previously identified DwnC compound from the LOPAC library. Dwn1 compound (Reserpine) was selected for serial dilution analysis. […] Dwn1 was used for preliminary in vitro and in vivo studies described below. Additional compounds suppressing Npas2 were identified (Table 2).
Dwn1 was serially diluted from 100 μM to 0.2 nM and applied to MSC Npas2-LacZ. EC was determined by LacZ expression and IC was determined by cell viability using Calcein AM/Hoechst 33342 staining.

[2] = test system: osteocalcin (Ocn), osteopontin (Opn), Bmal1 expression; experiment: Real time RT-PCR of osteogenic and clock genes in BMSC (MSC); assay type: cell-based, mouse
Text: as §1, §2, §3, §4

[3] = test system: murine dermal fibroblasts; experiment: Collagen synthesis by picrosirius red staining; assay type: cell-based, mouse; settings: day 7; 1 μM or 10 μM; vs control and 50 μg AA
Description: The effects of two different concentrations of Dwn1 (1 μM or 10 μM) on collagen synthesis in murine dermal fibroblast in vitro were examined Murine dermal fibroblasts were seeded into 24-well plates and cultured at 80%-90% confluency in medium supplemented with ascorbic acid (50 μg/mL) for 1, 3, and 7 days. The cells were then fixed with 10% neutral buffered formalin and stained with Picrosirius red (PolyScience, Niles, Ill.) for visualizing the collagen. AA: 1-ascorbic acid. OD: optical density. CTRL: cell treated with control medium without AA. […] (FIG. 35A) The absorption value was read in a spectrophotometer at 550 nm with a plate reader ([…] H1 plate reader) and compared by one-way ANOVA with the post hoc Holm test.

fibroblasts = experiment: In vitro wound healing: scratch fibroblast migration and collagen gel contraction; assay type: cell-based, mouse; settings: listed as Dwn1
Description: The in vitro wound healing ability of Dwn1 was tested using a previously described method.
Fibroblasts were seeded into a 6-well plate and were synchronized as above. After 2 hr, scratch lines were created with a 20 μL plastic pipette and were washed with medium (n=5 per group). These scratched areas were captured by time-lapse photomicrography every hour from 0 to 24 hr. The number of migrated cells into the scratched area was counted at 12 and 24 hr and compared by one-way ANOVA with post hoc Holm test.
The floating collagen gel contraction assay was performed following the previously established protocol with some modifications (Ngo et al., 2006). A 500 μL aliquot of collagen gel mixture (Collagen Type I, Corning, Manassas, Va.) containing fibroblasts (50,000 cells) was applied to a 24-well plate (n=5 in each group) and placed at room temperature for 20 min. The solidified gels were transferred to a 100 mm diameter dish and cultured (37_C, 5% CO2 in a humidified incubator). The gel images were scanned by a scanner at 0, 6, 12, 24, 48, and 72 hr. The collagen gel area at each time point was measured (NIH ImageJ ver.1.51) and compared by two-way ANOVA, followed by the Tukey test at each time point.
As described herein, a small molecule inhibitor of Neuronal PAS domain 2 (Npas2), Dwn1, improves wound healing and minimizes scarring.

With COC(=O)[C@H]1[C@H]2C[C@@H]3c4[nH]c5cc(OC)ccc5c4CCN3C[C@H]2C[C@@H](OC(=O)c2cc(OC)c(OC)c(OC)c2)[C@@H]1OC [Reserpine] the “In vitro mineralization compared with BMP-2 supplementation” value ([1]; Dwn1 1 μM vs BMP-2 100 ng/ml) was “equivalent to BMP-2 (100 ng/ml) supplementation”, the “In vitro mineralization / osteogenic differentiation” value ([1]; Npas2+/− BMSC/MSC) was “reproducibly observed” and the “In vitro mineralization / osteogenic differentiation” value ([1]; Npas2+/− BMSC/MSC, listed as Dwn1) was “responded; also recorded: increased”. For the same compound, the “In vitro mineralization / osteogenic differentiation” value ([1]; Npas2−/− BMSC/MSC) was “did not modulate”, the “In vitro mineralization / osteogenic differentiation” value ([1]; wild type BMSC/MSC, osteogenic medium, alizarin red) was “increased alizarin red positive in vitro mineralization; also recorded: dose-dependently accelerated in vitro mineralization; also recorded: reproducibly observed” and the “In vitro mineralization / osteogenic differentiation” value ([1]; wild type BMSC/MSC, osteogenic medium, alizarin red, listed as Dwn1) was “increased dose-dependently; also recorded: dose dependently increased; also recorded: dose-dependently increased”. For the same compound, the “Collagen deposition (Masson trichrome staining)” value (skin split wound) was “decreased excessive collage deposition; also recorded: very small area of collagen deposition”, the “Split wound healing / scarring” value (skin split wound) was “improved split wound healing with minimal scarring; also recorded: best wound healing” and the “Effective concentration (EC)” value (Npas2-LacZ expression) was 0.5 to 10 µM. For the same compound, the “Expression of core clock gene Bmal1” value ([2]; MSC, listed as Dwn1) was “did not affect; also recorded: not affected”, the “Expression of osteocalcin (Ocn)” value ([2]; day 21) was “significantly increased” and the “Expression of osteopontin (Opn)” value ([2]; day 21) was “mildly affected”. The “Expression of osteocalcin (Ocn)” value ([2]; day 21, listed as Dwn1) was “increased as early as D21; also recorded: accelerated expression”, the “Picrosirius red staining (collagen fiber formation and accumulation)” value [3] was “increase of a positive reaction” and the Collagen gel contraction (fibroblasts) was “accelerates”. The “Fibroblast migration in scratch wound healing assay” value (fibroblasts) was “accelerates”.
